The source of these data is ChEMBL document CHEMBL5344416, “Phenothiazines as anti-cancer agents: SAR overview and synthetic strategies” (Eur J Med Chem, 2023).

Series [1] deals with MCF7. The series is described as follows: Anticancer activity against human MCF7 cells assessed as cell growth inhibition incubated for 48 hrs by MTT assay. The conditions noted are these: MCF7, 48 h. Format: functional, cell-based. For orientation: Tetrazolium assays rely on reduction of a dye to a coloured formazan, in cell work by metabolically active cells.
Series [2] has as its system SNB-19. The series is described as follows: Anticancer activity against human SNB-19 cells assessed as reduction in cell growth by SRB assay. In kind it is functional, cell-based. In general terms: Sulforhodamine B stains cellular protein and so reports cell mass.
In series [3] the test system is TC-32. The series is described as follows: Cytotoxicity against human TC-32 cells assessed as reduction in cell viability. Format: functional, cell-based.
In series [4] the test system is MCF7. The experiment in a line: Cytotoxicity against human MCF7 cells assessed as reduction in cell growth. Format: functional, cell-based.
The nature of series [5]: Cytotoxicity against human HFF-1 cells assessed as reduction of cell viability incubated for 72 hrs by CCK-8 assay. In kind it is toxicity, cell-based.
The subject of series [6] is SNB-19. The series is described as follows: Antiproliferative activity against human SNB-19 cells assessed as reduction in cell proliferation incubated for 72 hrs by WST-1 assay. In kind it is functional, cell-based. Particulars: SNB-19, 72 h.
The subject of series [7] is TC-32. The series is described as follows: Antiproliferative activity against human TC-32 cells assessed as reduction in cell proliferation incubated for 72 hrs by WST-1 assay. In kind it is functional, cell-based. Particulars: TC-32, 72 h.
Series [8] deals with MDA-MB-231. The series is described as follows: Antiproliferative activity against human MDA-MB-231 cells assessed as reduction in cell proliferation incubated for 72 hrs by WST-1 assay. Format: functional, cell-based. Particulars: MDA-MB-231, 72 h.
In another series the test system is CWR22R. The series is described as follows: Antiproliferative activity against human 22Rv1 cells assessed as cell viability incubated for 96 hrs by Cell-Titer Glo assay. The conditions noted are these: 22Rv1, 96 h. In kind it is functional, cell-based.
For a further series, the system named is RAW264.7. The experiment in a line: Cytotoxicity against mouse RAW264.7 cells assessed as reduction in cell viability incubated for 72 hrs. Format: functional, cell-based. Particulars: RAW264.7, 72 h.
For series [9], the system named is HepG2. The experiment in a line: Cytotoxicity against human HepG2 cells assessed as reduction in cell viability incubated for 48 hrs by MTT assay. The conditions noted are these: HepG2, 48 h. Format: functional, cell-based.
Series [10] deals with MCF7. The experiment in a line: Cytotoxicity against human MCF7 cells assessed as cell growth inhibition measured after 48 hrs by MTT assay. Format: functional, cell-based. Particulars: MCF7, 48 h.
The test system of a further series is HSC-2. The experiment in a line: Cytotoxicity against human HSC-2 cells assessed as reduction in cell viability measured after 48 hrs by MTT assay. In kind it is functional.
The subject of the next series is HSC-3. The experiment in a line: Cytotoxicity against human HSC-3 cells assessed as reduction in cell viability incubated for 48 hrs by MTT assay. In kind it is functional.
The test system of a further series is HSC-4. The series is described as follows: Cytotoxicity against human HSC-4 cells assessed as reduction in cell viability incubated for 48 hrs by MTT assay. In kind it is functional.
For series [11], the system named is CT26. The series is described as follows: Antitumor activity against mouse CT26 cells assessed as reduction in cell viability incubated for 4 hrs by MTT assay. In kind it is functional, cell-based. Particulars: CT26, 4 h.
Series [12] deals with CT26. The series is described as follows: Antitumor activity against mouse CT26 cells assessed as tumor growth inhibition incubated for 4 hrs by MTT assay relative to control. Format: functional. More on the design: scale not given: the % may be the effect or the level left.
Series [13] concerns SNB-19. The series is described as follows: Anticancer activity against human SNB-19 cells assessed as reduction in cell growth incubated for 48 hrs by SRB assay. Particulars: SNB-19, 48 h. Format: functional, cell-based.
Series [14] relates to TC-32. The experiment in a line: Anticancer activity against human TC-32 cells assessed as reduction in cell growth incubated for 48 hrs by SRB assay. The conditions noted are these: TC-32, 48 h. Format: functional, cell-based.
The test system of series [15] is MDA-MB-231. The experiment in a line: Anticancer activity against human MDA-MB-231 cells assessed as reduction in cell viability measured after 72 hrs by MTT assay. Format: functional, cell-based. Particulars: MDA-MB-231, 72 h.
Another series relates to U-87 MG. The series is described as follows: Antiproliferative activity against human U87 cells assessed as reduction in cell viability incubated for 48 hrs by MTT assay. In kind it is functional, cell-based, U-87MG ATCC.
The subject of a further series is U-251. The series is described as follows: Antiproliferative activity against human U-251 cells assessed as reduction in cell viability incubated for 48 hrs by MTT assay. In kind it is functional, cell-based. Particulars: U-251, 48 h.
For the next series, the system named is THP-1. The experiment in a line: Antiproliferative activity against human THP-1 cells assessed as cell growth inhibition measured after 24 hrs by MTT assay. In kind it is functional, cell-based. The conditions noted are these: THP-1, 24 h.
In the next series the test system is HL-60. The series is described as follows: Antiproliferative activity against human HL-60 cells assessed as cell growth inhibition measured after 24 hrs by MTT assay. Particulars: HL-60, 24 h. In kind it is functional, cell-based.
Series [16] is described as follows: Antiproliferative activity against human PBMC cells assessed as reduction in cell viability measured after 24 hrs by MTT assay. In kind it is functional, cell-based.
Series [17] relates to MCF7. The experiment in a line: Antitumor activity against human MCF7 cells assessed as inhibition of cell growth at 1000 ug measured after 48 hrs by spectrophotometric analysis relative to control. In kind it is functional. The conditions noted are these: dose 1000 µg. Also on record: scale not given: the % may be the effect or the level left.
Series [18] has as its system MCF7. The series is described as follows: Antitumor activity against human MCF7 cells assessed as increase in LDH level at 1000 ug relative to control. Format: functional. Particulars: dose 1000 µg.
For the next series, the system named is BXPC-3. The experiment in a line: Cytotoxicity against human BXPC-3 cells assessed as reduction in cell viability incubated for 72 hrs by MTT assay. In kind it is functional, cell-based. Particulars: BXPC-3, 72 h.
For another series, the system named is ASPC1. The experiment in a line: Cytotoxicity against human ASPC1 cells assessed as reduction in cell viability incubated for 24 hrs by MTT assay. Particulars: ASPC1, 24 h. Format: functional, cell-based.
Another series concerns PANC-1. The series is described as follows: Cytotoxicity against human PANC-1 cells assessed as cell growth inhibition incubated for 48 hrs by WST-1 assay. Format: functional, cell-based. The conditions noted are these: PANC-1, 48 h.
The next series has as its system SW1990. The experiment in a line: Cytotoxicity against human SW1990 cells measured after 8 days. Format: functional, cell-based. Particulars: SW1990, 192 h.
For the next series, the system named is MRC5. The series is described as follows: Cytotoxicity against human MRC5 cells assessed as reduction in cell growth incubated for 48 hrs by CCK8 assay. In kind it is functional, cell-based. Particulars: MRC5, 48 h.
Series [19] has as its system MCF7. The experiment in a line: Cytotoxicity against human MCF7 cells assessed as reduction in cell viability by MTT assay. In kind it is functional, cell-based.
The nature of series [20]: Antioxidant activity assessed as DPPH radical scavenging activity. Format: functional.
Series [21] can be described thus: Antioxidant activity assessed as ABTS radical scavenging activity. In kind it is functional.
The subject of another series is A549. The series is described as follows: Anticancer activity against human A549 cells assessed as inhibition of cell proliferation measured after 48 hrs by MTT assay. Format: functional, cell-based. Particulars: A549, 48 h.
Series [22] concerns HepG2. The experiment in a line: Anticancer activity against human HepG2 cells assessed as inhibition of cell proliferation measured after 48 hrs by MTT assay. Format: functional, cell-based. The conditions noted are these: HepG2, 48 h.

pIC50: −log10 of the molar value. Where only a bound is given, the exact number is not on record here.

A word on the pIC50: it is −log10 of the IC50, conventionally taken in molar units. As usually defined, the IC50 is the point on the concentration scale where inhibition reaches its midpoint. As for `c1cnc2c(c1)Nc1ccncc1S2`, the pIC50 in the series on MCF7 [1] was 5.08; in the series on SNB-19 [2], 6.24; in the series with TC-32 [3], 6.14; in the series on MCF7 [4], 6.34. The IC50 at 72 h in [5] is 38.6 µM.
Regarding `C#CCN1c2ncccc2Sc2cccnc21`, the pIC50 with SNB-19 [6] was 5.41; in the series on TC-32 [7], 5.47; with MDA-MB-231 [8] it was 4.85.
As to `O=C(Nc1ccc(OCCCN2CCNCC2)cc1)N1c2ccccc2Sc2ccccc21`, the negative logarithm of the IC50 (pIC50) is 4.87 in the series on CWR22R and 4.22 in the series with RAW264.7.
On to `CCCCCCCCCCCCN1c2ccccc2Sc2ccc(C(=O)/C=C/c3cc(OC)c(OC)c(OC)c3)cc21`, for which the results for the negative logarithm of the IC50 (pIC50) in the series on HepG2 [9] and in the series with MCF7 [10] were 5.12 and 4.92, respectively.
For orientation: CC50 means the concentration at which the toxic effect on the cells reaches its halfway point. On to `COc1cc(OC)c(OC)cc1/C=C/C(=O)c1ccc2c(c1)Nc1ccccc1S2`, for which the figures for the CC50 in the series with HSC-2, with HSC-3 and in the series with HSC-4 were 4.9 µM, 311 µM and 8 µM, respectively.
Regarding `COCCOCCOCCOCCOCCOCCOCCOCCOCCOCCOCCOC(=O)CN1c2ccccc2Sc2ccccc21`, the pIC50 with CT26 [11] was 3.54. Also, the Activity in the series on CT26 [12] was determined as 92%.
With `CCCCCCCCCCCCN1c2ccccc2Sc2ccc(C(=O)/C=C/c3ccc(Cl)cc3)cc21`, the pIC50 with HepG2 [9] is 5.15; with MCF7 [10] it was 4.86.
Consider `CCN(C)CC#CCN1c2ccncc2Sc2ncccc21`, for which the results for the negative-log IC50 (pIC50) with SNB-19 [13], in the series with TC-32 [14] and with MDA-MB-231 [15] were 6.96, 5.82 and 5.55, respectively.
Consider `O=[N+]([O-])c1ccccc1S(=O)(=O)N1c2ccccc2Sc2ccc(Cl)cc21`, for which the negative-log IC50 (pIC50) in the series with U-87 MG was 5.29; with U-251, 5.03.
Turning to `CCCCCCCCCCc1nc2cc3c(cc2s1)N(C)c1ccccc1S3`, the pIC50 with THP-1 is 4.67; in the series on HL-60, 4.17; in series [16] it was below 2.70.
Turning to `CN1c2ccccc2Sc2cc(/C=C/C(=O)c3ccccc3)ccc21`, the Activity in the series with MCF7 [17] was found to be 21%; with MCF7 [18], 64%.
For `CC1=C(C(=O)Nc2ccc(Cl)c(Cl)c2)C(c2ccc3c(c2)Sc2ccccc2N3)C(C(=O)Nc2ccc(Cl)c(Cl)c2)=C(C)N1`, the pIC50 in the series with BXPC-3 is 5.20; with ASPC1 it was 5.20; in the series on PANC-1, 5.20; in the series with SW1990, 5.20; in the series on MRC5 it was 4.15.
Regarding `C/C(=N\c1ccc(/N=N/c2ccccc2)cc1)c1ccc2c(c1)Nc1ccccc1S2`, the pIC50 in the series on MCF7 [19] is 4.46; in series [20], 4.43; in [21], 4.39.
Consider `CCN(CC)CC#CCN1c2ccncc2Sc2ncccc21`, for which the results for the pIC50 in the series with SNB-19 [13], with TC-32 [14] and in the series with MDA-MB-231 [15] were 6.96, 6.27 and 5.20, respectively.
Regarding `COCCOCCOCCOCCOCCOCCOCCOCCOCCOCCOCCOCCN1c2ccccc2Sc2ccccc21`, the pIC50 in the series on CT26 [11] is 3.46. Besides, the Activity in the series on CT26 [12] came to 92%.
`COc1ccc(N/N=C2/SC(N/N=C(\C)c3ccc4c(c3)Nc3ccccc3S4)=NC2=O)cc1`: the pIC50 with A549 and with HepG2 [22] was 5.27 throughout.
